Like-named read-outs stand apart in the source and are kept apart here.
Assays:
[1] = target: T1, Full length wild-type cereblon CRBN (Homo sapiens, UniProt Q96SW2); experiment: Fluorescence polarization (FP) assay indicating cereblon binding
T1 construct: Full length wild-type cereblon CRBN (80.0 nM, 10 μL) was incubated in assay buffer
Source text: Protocol for Fluorescent Polarization Assay
Compound activity was monitored in a fluorescence polarization (FP) homogeneous assay using 1-[5-({2-[2-(2-{[2-(2,6-dioxopiperidin-3-yl)-1,3-dioxo-2,3-dihydro-1H-isoindol-4-yl]oxy}acetamido)ethoxy]ethyl}carbamoyl)pentyl]-3,3-dimethyl-2-[(1E,3E)-5-[(2E)-1,3,3-trimethyl-5-sulfo-2,3-dihydro-1H-indol-2-ylidene]penta-1,3-dien-1-yl]-3H-indol-1-ium-5-sulfonate as a fluorescent probe. Unless otherwise stated, all reagents were purchased from Sigma Aldrich. Enzymatic reactions were conducted in Perkin-Elmer Black 384 well ProxiPlate Plus (catalogue no. 6008269) in 10 μL total volume. Full length wild-type cereblon CRBN (80.0 nM, 10 μL) was incubated in assay buffer containing 20 mM HEPES (pH 8.0), […], 0.5 mM TCEP and 0.05% Tween 20 in the presence or absence of compound (300 nL). Inhibitors were stored as 10 mM DMSO stocks in an inert environment (low humidity, dark, low oxygen, room temperature) using the Storage Pod System. Compounds and DMSO were dispensed using the Echo E5XX (Labcyte Inc. USA) to give concentrations from 300 to 0.937 or 3000 to 9.3 nM in a 12 data point curve. […] Following incubation at room temperature for 30 min, the assay was initiated by dispensing the probe to a final concentration of 5 nM (2.5 nL of a 20 μM stock) using the Echo E5XX. FP was measured after a period of 12 hours using a Pherastar plate reader (BMG Labtech, Germany) exciting at 590 nm and measuring the amount of parallel and perpendicular light at 675 nm. The FP signal was subsequently normalized to the no-compound control (i.e., DMSO). Analysis and IC50 values were derived using Dotmatics (Dotmatics UK) software.

GSPT1 = GSPT1 (Homo sapiens, UniProt P15170+Q96SW2); experiment: Immunofluorescence assay for GSPT1 degradation in CAL-Si cells; assay type: cell-based; parameters: CAL-Si cells were purchased from DSMZ (cat. Number ACC302); host or cells: CAL-Si (CAL-51) cells; details: 6 hours treatment, read-out: Code: activity for GSPT1 degradation (DC50)
Method: The representative compounds were tested in an immunofluorescence assay for their activity to bind to degrade GSPT1. CAL-Si cells were purchased from DSMZ (cat. Number ACC302), sub-cultured in 90% Dulbecco's MEM (4.5 g/L glucose, Gibco 11965)+10% […] inactivated FBS (BioConcept, 2-01F136I) and incubated at 37° C., 5% CO2. For the assay, imaging microtiterplate Cell Carrier 96 Ultra (Perkin Elmer 6055302) were pre-coated with Fibronectin (Sigma F085, 30 μl at 0.2 μg/ml) in PBS (100 μl, Gibco 14190) for 45 min at room temperature, rinsed with PBS and CAL-Si cells (30K cells/well) were plated and let to adhere overnight. Cells were treated with compounds typically using a serial dilution ranging from 30 μM to 0.1 nM for 6 hours. Compounds were stored at 10 mM DMSO stocks. Vehicle (DMSO), positive (CC-885, 10 μM) and rescue controls (positive control plus 0.2 μM bortezomib) were also included at this stage. Cells were subsequently rinsed with PBS and fixed in 10% Formalin solution (50 μl, Sigma HT5011)) for 20 mins at room temperature. Following three consecutive PBS washes (100 μl), cells were permeabilized in 0.1% Triton X-100 in PBS (Sigma 93443, 50 μl) for 15 mins at room temperature. Following three further PBS washes, […] blocking buffer (1% BSA, Sigma A4503, in PBS) was added for 45 min for signal-to-noise reduction.
Primary antibody (human GSPT1, Sigma HPA052488) was diluted in blocking buffer (dil.1/300, 35 μl/well) and incubated with the cells overnight at 4° C. After three PBS washes, Alexa-fluor 488 coupled secondary antibodies (Invitrogen, A32731, dil.1/1000), Alexa-fluor 647-Phalloidin (Invitrogen, A22287, dil.1/200) and DAPI (Thermo, #62248, dil.1/1000) were diluted in blocking buffer and incubated with the samples for 2 hours at room temperature. After three final PBS washes, samples were conserved in […] PBS in the dark, until measurement. Image acquisition was performed on the Operetta High-Content Imager (Perkin-Elmer). Fluorescence intensity of Alexa-Fluor 488 (GSPT1), Alexa-Fluor 647 (Actin) and DAPI (Nucleus) were measured. For the determination of GSPT1 DC50 values, a custom algorithm implemented in the PerkinElmer image analysis software Harmony-Acapella® was developed. After user-defined setting of adjustment parameters, the analysis was run identically without human intervention for all image fields. DAPI staining of the nuclei was used to determine the location of cells using standard nuclei detection modules. Segmentation artifacts were removed by threshold-based filters for area, roundness and intensity. The outline of the cells was determined analogously from the sum of the normalized, smoothed DAPI and Actin channel, starting from each nucleus.
The Alexa-Fluor 488 (GSPT1) signal intensity in each cell was finally measured, in order to obtain a Mean intensity per cell. GSPT1 degradation (DC50) was calculated after normalization to controls and data import in CDD vault Database, using non-linear regression.

[2] = cereblon binding, CRBN 80.0 nM, probe 5 nM, FP read after 12 hours, read-out: rFP IC50
[3] = fluorescence polarization assay, read-out: IC50 value (cereblon binding)

T1 sequence (Q96SW2 whole entry): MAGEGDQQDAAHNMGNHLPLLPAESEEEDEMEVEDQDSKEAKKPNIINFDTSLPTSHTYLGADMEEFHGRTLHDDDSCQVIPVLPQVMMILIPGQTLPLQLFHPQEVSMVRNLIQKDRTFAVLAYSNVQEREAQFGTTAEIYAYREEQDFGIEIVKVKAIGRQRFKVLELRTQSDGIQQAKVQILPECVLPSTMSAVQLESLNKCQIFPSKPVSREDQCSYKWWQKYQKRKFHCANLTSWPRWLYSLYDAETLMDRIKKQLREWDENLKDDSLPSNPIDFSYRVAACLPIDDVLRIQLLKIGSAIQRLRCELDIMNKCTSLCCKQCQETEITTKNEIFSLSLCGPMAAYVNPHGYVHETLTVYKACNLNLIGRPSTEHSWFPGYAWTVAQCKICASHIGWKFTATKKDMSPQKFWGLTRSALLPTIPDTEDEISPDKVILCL
Chain of GSPT1 (P15170 whole entry): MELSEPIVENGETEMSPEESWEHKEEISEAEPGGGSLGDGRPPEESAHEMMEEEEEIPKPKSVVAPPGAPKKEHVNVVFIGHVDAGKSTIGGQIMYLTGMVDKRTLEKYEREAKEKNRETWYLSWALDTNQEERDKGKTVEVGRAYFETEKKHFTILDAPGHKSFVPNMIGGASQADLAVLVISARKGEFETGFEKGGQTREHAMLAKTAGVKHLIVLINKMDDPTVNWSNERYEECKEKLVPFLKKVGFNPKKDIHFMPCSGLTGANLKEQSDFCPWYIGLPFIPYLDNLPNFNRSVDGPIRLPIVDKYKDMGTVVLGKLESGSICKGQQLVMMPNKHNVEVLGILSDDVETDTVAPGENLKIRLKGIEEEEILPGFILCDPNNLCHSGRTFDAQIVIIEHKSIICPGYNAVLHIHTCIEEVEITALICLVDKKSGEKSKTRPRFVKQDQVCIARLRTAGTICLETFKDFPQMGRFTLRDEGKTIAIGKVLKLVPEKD
Chain of GSPT1 (Q96SW2 whole entry): as the sequence (Q96SW2 whole entry) above
Chain of GSPT1 (Q16531 whole entry partner): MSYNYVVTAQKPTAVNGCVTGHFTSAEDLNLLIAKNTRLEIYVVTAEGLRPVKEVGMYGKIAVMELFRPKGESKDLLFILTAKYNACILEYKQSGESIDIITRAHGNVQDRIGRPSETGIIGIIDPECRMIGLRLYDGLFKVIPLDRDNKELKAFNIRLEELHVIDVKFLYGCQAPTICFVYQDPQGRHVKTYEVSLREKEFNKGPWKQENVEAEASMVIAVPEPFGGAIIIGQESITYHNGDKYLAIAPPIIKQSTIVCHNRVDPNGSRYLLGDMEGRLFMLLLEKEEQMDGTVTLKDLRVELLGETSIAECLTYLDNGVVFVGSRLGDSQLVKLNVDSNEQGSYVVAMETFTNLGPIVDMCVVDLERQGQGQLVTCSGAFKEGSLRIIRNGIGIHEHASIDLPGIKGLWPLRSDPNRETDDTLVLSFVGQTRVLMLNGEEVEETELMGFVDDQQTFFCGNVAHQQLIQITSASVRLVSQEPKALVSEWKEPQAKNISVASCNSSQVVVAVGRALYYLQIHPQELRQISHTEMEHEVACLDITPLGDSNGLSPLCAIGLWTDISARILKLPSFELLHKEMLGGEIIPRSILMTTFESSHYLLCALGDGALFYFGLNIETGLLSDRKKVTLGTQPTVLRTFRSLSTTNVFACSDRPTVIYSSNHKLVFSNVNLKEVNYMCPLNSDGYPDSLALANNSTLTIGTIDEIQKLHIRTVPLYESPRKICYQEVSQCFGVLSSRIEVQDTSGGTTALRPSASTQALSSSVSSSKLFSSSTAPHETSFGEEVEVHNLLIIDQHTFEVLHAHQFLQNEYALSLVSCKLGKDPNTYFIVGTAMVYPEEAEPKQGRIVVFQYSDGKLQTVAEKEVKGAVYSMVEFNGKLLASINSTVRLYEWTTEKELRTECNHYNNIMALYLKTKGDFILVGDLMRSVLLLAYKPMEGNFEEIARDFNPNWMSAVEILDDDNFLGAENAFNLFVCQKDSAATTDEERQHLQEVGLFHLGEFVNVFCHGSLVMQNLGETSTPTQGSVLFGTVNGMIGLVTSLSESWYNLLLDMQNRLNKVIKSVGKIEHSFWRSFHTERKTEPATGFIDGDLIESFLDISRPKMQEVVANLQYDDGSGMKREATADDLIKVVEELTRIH

Compound	IC50 [1, 2]	DC50 (GSPT1)	IC50 [1, 3]
O=C1CCC(N2Cc3ccc(CCC(=O)Nc4ccc(F)c(OC(F)(F)F)c4)cc3C2=O)C(=O)N1 (centres unmarked) [Compound 60]	> 1700 nM	30 to 300 nM	–
Cc1c(Cl)cc(NC(=O)CCc2ccc3c(c2)C(=O)N(C2CCC(=O)NC2=O)C3)cc1OCC1CCN(C)C1 (centres unmarked) [Compound 61]	≤ 500 nM	> 300 nM	< 1100 nM
CC(F)(F)c1ccc(NC(=O)CCc2ccc3c(c2)C(=O)N(C2CCC(=O)NC2=O)C3)cc1 (centres unmarked) [Compound 63]	≤ 500 nM	30 to 300 nM	< 1100 nM
Cc1ncc(NC(=O)CCc2ccc3c(c2)C(=O)N(C2CCC(=O)NC2=O)C3)cc1OC(F)(F)F (centres unmarked) [Compound 64]	1100 to 1700 nM	30 to 300 nM	–
CCc1cc(NC(=O)CCc2ccc3c(c2)C(=O)N(C2CCC(=O)NC2=O)C3)sn1 (centres unmarked) [Compound 65]	> 1700 nM	30 to 300 nM	–
O=C1CCC(N2Cc3ccc(CCC(=O)Nc4cc(CN5CCOCC5)cc(OC(F)F)c4)cc3C2=O)C(=O)N1 (centres unmarked) [Compound 66]	> 1700 nM	30 to 300 nM	–
Cc1c(Cl)cc(NC(=O)CNc2ccc3c(c2)C(=O)N(C2CCC(=O)NC2=O)C3)cc1CN1CCOCC1 (centres unmarked) [Compound 67, N-(3-chloro-4-methyl-5-(morpholinomethyl)phenyl)-2-((2-(2,6-dioxopiperidin-3-yl)-3-oxoisoindolin-5-yl)amino)acetamide]	≤ 500 nM	> 300 nM	–
Cc1c(Cl)cc(NC(=O)COc2ccc3c(c2)C(=O)N(C2CCC(=O)NC2=O)C3)cc1CN1CCOCC1 (centres unmarked) [Compound 68, N-(3-chloro-4-methyl-5-(morpholinomethyl)phenyl)-2-((2-(2,6-dioxopiperidin-3-yl)-3-oxoisoindolin-5-yl)oxy)acetamide]	≤ 500 nM	> 300 nM	–
Cc1ccc(NC(=O)COc2ccc3c(c2)C(=O)N(C2CCC(=O)NC2=O)C3)cc1Cl (centres unmarked) [Compound 69, N-(3-chloro-4-methylphenyl)-2-((2-(2,6-dioxopiperidin-3-yl)-3-oxoisoindolin-5-yl)oxy)acetamide]	500 to 1100 nM	> 300 nM	–

From US20240051937A1, “ISOINDOLINONE AMIDE COMPOUNDS USEFUL TO TREAT DISEASES ASSOCIATED WITH GSPT1” (Monte Rosa Therapeutics, Inc., priority 2021, published 2024)
